Experimental data: US20160102317A1, “PLANTS HAVING INCREASED TOLERANCE TO HERBICIDES” (BASF SE, priority 2013, published 2016)

Columns and labels:
[1] = target: T1, Arabidopsis HPPD (SEQ ID NO:53), wild-type (Arabidopsis thaliana, UniProt P93836); experiment: HPPD activity assay (HGA by HPLC), wild-type enzyme characterization; type: biochemical; conditions: Arabidopsis HPPD
T1 construct: His6 (N); made in house; host or cells: E. coli BL21 (DE3)
T1 sequence (P93836 1-445): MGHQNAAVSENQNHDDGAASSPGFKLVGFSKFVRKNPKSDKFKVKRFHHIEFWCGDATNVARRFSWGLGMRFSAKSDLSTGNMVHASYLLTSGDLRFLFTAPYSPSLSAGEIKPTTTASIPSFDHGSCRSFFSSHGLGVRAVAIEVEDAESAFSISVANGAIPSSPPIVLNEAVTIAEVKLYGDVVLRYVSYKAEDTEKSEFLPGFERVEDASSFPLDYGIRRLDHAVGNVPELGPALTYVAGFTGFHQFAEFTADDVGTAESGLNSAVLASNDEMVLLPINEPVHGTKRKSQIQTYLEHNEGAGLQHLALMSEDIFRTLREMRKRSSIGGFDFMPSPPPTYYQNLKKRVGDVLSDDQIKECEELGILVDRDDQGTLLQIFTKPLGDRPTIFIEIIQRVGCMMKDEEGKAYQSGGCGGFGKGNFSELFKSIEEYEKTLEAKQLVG
Description: (§1) HPPD produces homogentisic acid and CO2 from 4-hydroxyphenylpyruvate (4-HPP) and 02. The activity assay for HPPD is based on the analysis of homogentisic acid by reversed phase HPLC. The assay mixture can contain 150 mM potassium phosphate buffer pH 7.0, 50 mM L-ascorbic acid, 100 μM Catalase (Sigma-Aldrich), 1 μM FeSO4 and 0.2 units of purified HPPD enzyme in a total volume of 505 μl. 1 unit is defined as the amount of enzyme that is required to produce 1 nmol of HGA per minute at 20° C.
(§2) After a preincubation of 30 min the reaction is started by adding 4-HPP to a final concentration of 0.05 mM. The reaction is allowed to proceed for 45 min at room temperature. The reaction is stopped by the addition of 50 μl of 4.5 M phosphoric acid. The sample is filtered using a […] pore size PVDF filtration device.
(§3) 5 μl of the cleared sample is analyzed on an UPLC HSS T3 column (particle size 1.8 μm, dimensions 2.1×50 mm; Waters) by isocratic elution using 90% 20 mM NaH2PO4 pH 2.2, 10% methanol (v/v).
(§4) HGA is detected electrochemically at 750 mV (mode: DC; polarity: positive) and quantified by integrating peak areas (Empower software; Waters).
(§5) Inhibitors are dissolved in DMSO (dimethylsulfoxide) to a concentration of 0.5 mM. From this stock solution serial five-fold dilutions are prepared in DMSO, which are used in the assay. The respective inhibitor solution accounts for 1% of the assay volume. […] Activities are normalized by setting the uninhibited enzyme activity to 100%. IC50 values are calculated using non-linear regression.
(§6) Using methods which are described in the above examples or well known in the art, purified, recombinant wild-type HPPD enzymes are characterized with respect to their kinetic properties and sensitivity towards HPPD inhibiting herbicides. Apparent michaelis constants (Km) and maximal reaction velocities (Vmax) are calculated by non-linear regression with the software GraphPad Prism 5 (GraphPad Software, La Jolla, USA) using a substrate inhibition model. […] Weighted means (by standard error) of Km and IC50 values are calculated from at least three independent experiments.
(§7) Field performance of the HPPD enzyme, which is used as a herbicide tolerance trait, may depend not only on its lack of sensitivity towards HPPD inhibiting herbicides but also on its activity. To assess the potential performance of a herbicide tolerance trait a tolerance index (TI) is calculated using the following formula: […]
(§8) Easy comparison and ranking of each trait is enabled by normalizing tolerance indexes on Arabidopsis wild-type HPPD.

[2] = target: T2, Hordeum HPPD (SEQ ID NO:2), wild-type (Hordeum vulgare, UniProt O48604, A164G/R146V/R147D/R148G); experiment: as above; type: biochemical; conditions: Hordeum HPPD
T2 construct: His (N); made in house; host or cells: E. coli BL21 (DE3)
Description: as §1, §2, §3, §4, §5, §6, §7, §8

[3] = apparent Km, read-out: Km [μM] (4-HPP)
[4] = apparent kcat from Vmax, substrate 4-HPP

T2 sequence (O48604 whole entry R146V/R147D/R148G/A164G): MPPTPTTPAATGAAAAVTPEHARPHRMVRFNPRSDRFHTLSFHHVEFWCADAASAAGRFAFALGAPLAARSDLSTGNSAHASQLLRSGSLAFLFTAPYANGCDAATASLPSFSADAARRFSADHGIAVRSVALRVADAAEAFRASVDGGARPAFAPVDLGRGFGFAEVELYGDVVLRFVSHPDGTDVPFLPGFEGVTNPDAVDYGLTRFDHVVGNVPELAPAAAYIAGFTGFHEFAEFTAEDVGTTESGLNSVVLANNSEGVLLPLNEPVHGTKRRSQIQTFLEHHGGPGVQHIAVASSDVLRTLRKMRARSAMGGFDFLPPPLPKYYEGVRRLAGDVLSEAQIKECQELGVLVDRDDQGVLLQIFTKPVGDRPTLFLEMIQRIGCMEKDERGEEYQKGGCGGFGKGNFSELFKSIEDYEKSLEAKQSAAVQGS

O=C(O)C(=O)Cc1ccc(O)cc1 [Inhibitor 4-HPP, 4-hydroxyphenylpyruvate, reference compound]
Km [1, 3]: 13 µM
kcat [1, 4]: 12.9 S^−1
Km [2, 3]: 26 µM
kcat [2, 4]: 11.5 S^−1
